Results as given in ChEMBL document CHEMBL1201861, “Genomics of Drug Sensitity in Cancer screening data, Wellcome Trust Sanger Institute”.

Columns and labels:
[1] = system: G-402; assay: cells; format: functional, cell-based; details: Homo sapiens
Description: SANGER: Inhibition of human G-402 cell growth in a cell viability assay.

[2] = system: RPMI-6666; assay: cells; format: functional, cell-based, Homo sapiens; details: Homo sapiens, RPMI-6666
Description: SANGER: Inhibition of human RPMI-6666 cell growth in a cell viability assay.

[3] = system: BCPAP; assay: cells; format: functional, cell-based; details: Homo sapiens;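 further: growth inhibition of BCPAP cells, read out in a cell viability assay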
Description: SANGER: Inhibition of human BCPAP cell growth in a cell viability assay.

[4] = system: REH; assay: cells; format: functional, cell-based, Homo sapiens; details: Homo sapiens, REH;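 further: growth inhibition of REH cells determined with a cell viability read-out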
Description: SANGER: Inhibition of human REH cell growth in a cell viability assay.

[5] = system: NB1; assay: cells; format: functional, cell-based, Homo sapiens; details: Homo sapiens, NB1;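 further: reduction of NB1 cell proliferation, read out with a viability assay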
Description: SANGER: Inhibition of human NB1 cell growth in a cell viability assay.

[6] = system: SK-OV-3; assay: cells; format: functional, cell-based; details: Homo sapiens;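 further: growth inhibition of SK-OV-3 human cells, read out with a cell viability assay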
Description: SANGER: Inhibition of human SK-OV-3 cell growth in a cell viability assay.

[7] = system: SW1463; assay: cells; format: functional, cell-based; details: Homo sapiens;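 further: growth inhibition of SW1463 cells, determined with a cell viability assay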
Description: SANGER: Inhibition of human SW1463 cell growth in a cell viability assay.

[8] = system: EVSA-T; assay: cells; format: functional, cell-based, Homo sapiens; details: Homo sapiens, EVSA-T;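 further: growth inhibition of EVSA-T cells, read out with a cell viability assay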
Description: SANGER: Inhibition of human EVSA-T cell growth in a cell viability assay.

[9] = system: NCI-H719; assay: cells; format: functional, cell-based, Homo sapiens; details: Homo sapiens, NCI-H719;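 further: growth inhibition of the cultured cell line, read out with a viability assay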
Description: SANGER: Inhibition of human NCI-H719 cell growth in a cell viability assay.

[10] = system: NCI-H2171; assay: cells; format: functional, cell-based, Homo sapiens; details: Homo sapiens, NCI-H2171;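 further: growth inhibition of human NCI-H2171 cells, read out by a cell viability assay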
Description: SANGER: Inhibition of human NCI-H2171 cell growth in a cell viability assay.

[11] = system: DoTc2-4510; assay: cells; format: functional, cell-based; details: Homo sapiens
[12] = system: SiHa; assay: cells; format: functional, cell-based; details: Homo sapiens;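 further: Viability-based readout of growth inhibition in SiHa cells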
Description: SANGER: Inhibition of human SiHa cell growth in a cell viability assay.

[13] = system: EC-GI-10; assay: cells; format: functional, cell-based, Homo sapiens; details: Homo sapiens, EC-GI-10
Description: SANGER: Inhibition of human EC-GI-10 cell growth in a cell viability assay.

[14] = system: DOK; assay: cells; format: functional, cell-based; details: Homo sapiens;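 further: cell viability assay read-out, values reflect inhibition of cell growth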
Description: SANGER: Inhibition of human DOK cell growth in a cell viability assay.

[15] = system: OAW-28; assay: cells; format: functional, cell-based; details: Homo sapiens;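 further: growth inhibition of OAW-28 cells, read out with a cell viability assay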
Description: SANGER: Inhibition of human OAW-28 cell growth in a cell viability assay.

[16] = system: C-33-A; assay: cells; format: functional, cell-based; details: Homo sapiens;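 further: cell viability assay measuring growth inhibition of C-33-A cells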
Description: SANGER: Inhibition of human C-33-A cell growth in a cell viability assay.

[17] = system: RPMI-7951; assay: cells; format: functional, cell-based; details: Homo sapiens
Description: SANGER: Inhibition of human RPMI-7951 cell growth in a cell viability assay.

[18] = system: SN12C; assay: cells; format: functional, cell-based; details: Homo sapiens;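 further: growth inhibition of human SN12C cells, measured by a cell viability assay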
Description: SANGER: Inhibition of human SN12C cell growth in a cell viability assay.

[19] = system: BHY; assay: cells; format: functional, cell-based; details: Homo sapiens;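 further: cell growth inhibition read out by a viability assay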
Description: SANGER: Inhibition of human BHY cell growth in a cell viability assay.

[20] = system: HOS; assay: cells; format: functional, cell-based; details: Homo sapiens;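 further: growth inhibition of human HOS cells, read out with a cell viability assay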
Description: SANGER: Inhibition of human HOS cell growth in a cell viability assay.

[21] = system: MC-IXC; assay: cells; format: functional, cell-based; details: Homo sapiens;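 further: growth inhibition of MC-IXC cells, read out with a cell viability assay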
Description: SANGER: Inhibition of human MC-IXC cell growth in a cell viability assay.

[22] = system: MDA-MB-453; assay: cells; format: functional, cell-based; details: Homo sapiens
Description: SANGER: Inhibition of human MDA-MB-453 cell growth in a cell viability assay.

[23] = system: TALL-1; assay: cells; format: functional, cell-based, Homo sapiens; details: Homo sapiens, TALL-1;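 further: growth inhibition of cultured human TALL-1 cells, read out by a cell viability assay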
Description: SANGER: Inhibition of human TALL-1 cell growth in a cell viability assay.

[24] = system: OAW-42; assay: cells; format: functional, cell-based; details: Homo sapiens;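 further: growth inhibition of OAW-42 cells, read out with a cell viability assay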
Description: SANGER: Inhibition of human OAW-42 cell growth in a cell viability assay.

[25] = system: LB373-MEL-D; assay: cells; format: functional, cell-based, Homo sapiens; details: Homo sapiens, LB373-MEL-D;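 further: growth inhibition of the cell line, read out in a cell viability assay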
Description: SANGER: Inhibition of human LB373-MEL-D cell growth in a cell viability assay.

[26] = system: MKN-7; assay: cells; format: functional, cell-based; details: Homo sapiens;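 further: growth inhibition of MKN-7 cells, read out with a cell viability assay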
Description: SANGER: Inhibition of human MKN7 cell growth in a cell viability assay.

[27] = system: SR; assay: cells; format: functional, cell-based, Homo sapiens; details: Homo sapiens, SR
Description: SANGER: Inhibition of human SR cell growth in a cell viability assay.

[28] = system: NCI-H596; assay: cells; format: functional, cell-based; details: Homo sapiens;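 further: growth inhibition of NCI-H596 cells, read out with a cell viability assay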
Description: SANGER: Inhibition of human NCI-H596 cell growth in a cell viability assay.

[29] = system: UMC-11; assay: cells; format: functional, cell-based; details: Homo sapiens;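 further: growth inhibition of UMC-11 cells, read out with a cell viability assay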
Description: SANGER: Inhibition of human UMC-11 cell growth in a cell viability assay.

[30] = system: A204; assay: cells; format: functional, cell-based; details: Homo sapiens;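 further: growth inhibition of human A204 cells, read out with a cell viability assay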
Description: SANGER: Inhibition of human A204 cell growth in a cell viability assay.

[31] = system: HT-1376; assay: cells; format: functional, cell-based; details: Homo sapiens
Description: SANGER: Inhibition of human HT-1376 cell growth in a cell viability assay.

[32] = system: NCI-H2405; assay: cells; format: functional, cell-based; details: Homo sapiens;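 further: growth inhibition of the human cell line, read out with a cell viability assay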
Description: SANGER: Inhibition of human NCI-H2405 cell growth in a cell viability assay.

[33] = system: JIYOYE; assay: cells; format: functional, cell-based, Homo sapiens; details: Homo sapiens, JIYOYE
Description: SANGER: Inhibition of human JiyoyeP-2003 cell growth in a cell viability assay.

[34] = system: NCI-H2452; assay: cells; format: functional, cell-based; details: Homo sapiens;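 further: growth inhibition of NCI-H2452 cells, read out with a cell viability assay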
Description: SANGER: Inhibition of human NCI-H2452 cell growth in a cell viability assay.

[35] = system: NCI-H2052; assay: cells; format: functional, cell-based; details: Homo sapiens;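 further: growth inhibition of NCI-H2052 cells, read out with a cell viability assay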
Description: SANGER: Inhibition of human NCI-H2052 cell growth in a cell viability assay.

[36] = system: SUP-T1; assay: cells; format: functional, cell-based, Homo sapiens; details: Homo sapiens, SUP-T1;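 further: growth inhibition of human SUP-T1 cells, read out as cell viability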
Description: SANGER: Inhibition of human SUP-T1 cell growth in a cell viability assay.

[37] = system: C32; assay: cells; format: functional, cell-based; details: Homo sapiens;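 further: cell viability assay, with IC50 reflecting inhibition of C32 cell growth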
Description: SANGER: Inhibition of human C32 cell growth in a cell viability assay.

[38] = system: DMS-153; assay: cells; format: functional, cell-based, Homo sapiens; details: Homo sapiens, DMS-153
Description: SANGER: Inhibition of human DMS-153 cell growth in a cell viability assay.

[39] = system: DMS-273; assay: cells; format: functional, cell-based; details: Homo sapiens
Description: SANGER: Inhibition of human DMS-273 cell growth in a cell viability assay.

[40] = system: G-361; assay: cells; format: functional, cell-based; details: Homo sapiens
[41] = system: RPMI 8402; assay: SANGER: Inhibition of human RPMI-8402 cell growth in a cell viability assay.; format: functional, cell-based; details: Homo sapiens, RPMI 8402
[42] = system: IGROV-1; assay: cells; format: functional, cell-based; details: Homo sapiens;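 further: reduction of IGROV-1 cell growth, read out with a viability assay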
Description: SANGER: Inhibition of human IGROV-1 cell growth in a cell viability assay.

[43] = system: SCC-9; assay: cells; format: functional, cell-based; details: Homo sapiens;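 further: Read-out is a cell viability assay, with values giving inhibition of cell growth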
Description: SANGER: Inhibition of human SCC-9 cell growth in a cell viability assay.

[44] = system: AU565; assay: cells; format: functional, cell-based; details: Homo sapiens;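 further: cell viability assay measuring growth inhibition of human AU565 cells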
Description: SANGER: Inhibition of human AU565 cell growth in a cell viability assay.

[45] = system: HCC38; assay: cells; format: functional, cell-based; details: Homo sapiens;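 further: cell viability assay on the human HCC38 cell line, with IC50 marking the concentration that inhibits cell growth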
Description: SANGER: Inhibition of human HCC38 cell growth in a cell viability assay.

[46] = system: DG-75; assay: cells; format: functional, cell-based, Homo sapiens; details: Homo sapiens, DG-75;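 further: growth inhibition of DG-75 cells, read out with a cell viability assay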
Description: SANGER: Inhibition of human DG-75 cell growth in a cell viability assay.

[47] = system: NCI-H28; assay: cells; format: functional, cell-based; details: Homo sapiens;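 further: growth inhibition of human NCI-H28 cells, read out as cell viability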
Description: SANGER: Inhibition of human NCI-H28 cell growth in a cell viability assay.

[48] = system: NCI-H1522; assay: cells; format: functional, cell-based, Homo sapiens; details: Homo sapiens, NCI-H1522;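 further: growth inhibition of NCI-H1522 cells, read out with a cell viability assay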
Description: SANGER: Inhibition of human NCI-H1522 cell growth in a cell viability assay.

[49] = system: CAL-39; assay: cells; format: functional, cell-based; details: Homo sapiens;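 further: cell viability assay measuring growth inhibition of CAL-39 cells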
Description: SANGER: Inhibition of human CAL-39 cell growth in a cell viability assay.

[50] = system: SU-DHL-1; assay: SANGER: Inhibition of human SU-DHL-1 cell growth in a cell viability assay.; format: functional, cell-based; details: Homo sapiens, SU-DHL-1
[51] = system: NCI-H510A; assay: cells; format: functional, cell-based, Homo sapiens; details: Homo sapiens, NCI-H510A;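 further: growth inhibition of NCI-H510A cells, read out with a cell viability assay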
Description: SANGER: Inhibition of human NCI-H510A cell growth in a cell viability assay.

[52] = system: HuO-3N1; assay: cells; format: functional, cell-based; details: Homo sapiens;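 further: cell viability readout used to measure how strongly compounds suppress proliferation of human HuO-3N1 cells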
Description: SANGER: Inhibition of human HuO-3N1 cell growth in a cell viability assay.

[53] = system: EFO-27; assay: cells; format: functional, cell-based; details: Homo sapiens;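 further: growth inhibition of EFO-27 cells, read out with a cell viability assay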
Description: SANGER: Inhibition of human EFO-27 cell growth in a cell viability assay.

[54] = system: NCI-H441; assay: cells; format: functional, cell-based; details: Homo sapiens;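 further: growth inhibition of NCI-H441 cells, read out with a cell viability assay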
Description: SANGER: Inhibition of human NCI-H441 cell growth in a cell viability assay.

[55] = system: HCT-116; assay: cells; format: functional, cell-based; details: Homo sapiens
Description: SANGER: Inhibition of human HCT-116 cell growth in a cell viability assay.

[56] = system: BT-20; assay: cells; format: functional, cell-based; details: Homo sapiens;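 further: cell viability assay measuring suppression of growth in human BT-20 cells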
Description: SANGER: Inhibition of human BT-20 cell growth in a cell viability assay.

[57] = system: HCC1419; assay: cells; format: functional, cell-based; details: Homo sapiens;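 further: growth inhibition of human HCC1419 cells, read out as cell viability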
Description: SANGER: Inhibition of human HCC1419 cell growth in a cell viability assay.

Measured: IC50

COc1ccc(-c2cc3nccn3c(Nc3ncccc3C(N)=O)n2)cc1OC
2.06 µM: [53]
3.17 µM: [3]
5.65 µM: [54]
2.81 µM: [19]
1.71 µM: [5]
2.1 µM: [36]
6.61 µM: [39]
3.57 µM: [49]
3.25 µM: [31]
6.9 µM: [1]
4.3 µM: [40]
3.98 µM: [55]
0.548 µM: [27]
1.06 µM: [11]
2.25 µM: [4]
2.53 µM: [16] | [42]
7.15 µM: [44]
3.48 µM: [17]
1.77 µM: [41]
3.32 µM: [20]
1.44 µM: [2]
1.55 µM: [33]
> 8 µM: all other assays above

OC[C@H](Cc1ccccc1)Nc1nc(Oc2ccc3c(c2)CCC3)nc2c1ncn2Cc1ccc(-c2ccccc2)cc1
2.06 µM: [40]
9.3 µM: [5]
1.41 µM: [17]
5.13 µM: [19]
4.97 µM: [36]
3.08 µM: [20]
6.47 µM: [44]
8.45 µM: [42]
> 10.2 µM: all other assays above
